Two molecules from patent US4199501A, “Peptides related to somatostatin” (Eli Lilly and Company, priority 1978, dated 1980) can be followed below.

Experiment [1] concerns growth hormone (GH) secretion. In words: Growth Hormone Inhibition In Rats (pentobarbital-stimulated GH secretion, serum GH by radioimmunoassay). It is filed as in vivo. The arrangement: Serum Growth Hormone Conc. Mean ± SEM: unit not given here. The note with it: male rats; for % Inhibition of GH release (as compared to saline controls): 20 minutes; for Serum Growth Hormone Conc. Mean ± SEM: with sodium pentobarbital 4 mg/rat I.P., blood 20 minutes later. As for the experimental part:
A. Growth Hormone Inhibition In Rats:
This test is a modification of the method of P. Brazeau et al. Endocrinology, 94, 184 (1974). Male rats (weighing 100-110 g.) are divided into three groups of eight rats each. Each rat is administered sodium pentobarbital at a dose of 4 mg/rat (I.P.) to stimulate growth hormone (GH) secretion. Simultaneously, one group of rats receives the test compound (S.C.); the second group receives somatostatin (S.C.); and the third group (control) receives saline (S.C.). Twenty-minutes later, the animals are decapitated and blood samples are collected. The serum concentration of growth hormone (GH) is determined by radioimmunoassay. The mean GH concentration (± standard error of the mean) is calculated for each group. The percent inhibition of GH release (as compared to saline controls) is then calculated for the test compound and for somatostatin. When tested as above-described, the peptide of Example 4, (D-Ala^2, D-Ala^5, Cha^6, D-Trp^8, D-Val^10 -somatastatin) representative of the peptides of Formula III, gave the results set forth below in Table I: […]

The next experiment has as its system serum insulin. In words: Insulin Inhibition In Dogs (L-alanine infusion, serum insulin by radioimmunoassay). The class given is in vivo, dog. The method, then:
(§1) B. Insulin and Glucagon Inhibition In Dogs:
(§2) A normal dog is fasted overnight. An intravenous (I.V.) infusion of the test compound (dissolved in saline) is begun. Thirty minutes thereafter an additional infusion of L-alanine (dissolved in saline) is begun and is continued for a total of 15 minutes so that a total dose of about 1 mmole of L-alanine per kg. body weight is given. Infusion of the test compound is continued for an additional 15 minute period.
(§3) Blood samples are taken periodically before (at -20, -10 and -1 minutes) and after (5, 10, 15, 30, 35, 40, 45, 50, 60, 90, 120 and 150 minutes) the start of the infusion of the test compound. The serum insulin and serum glucagon concentrations in the blood are determined by radioimmunoassay. A plot is made of the glucagon and insulin concentrations versus time. The plot obtained from the test compound is compared to plots obtained from somatostatin and saline (controls) in similar experiments.
(§4) Infusion of L-alanine (in the absence of somatostatin or active test compound) causes an abrupt increase in serum insulin and glucagon concentrations. The concentrations return to basal levels after the L-alanine infusion is terminated.

The subject of a further experiment is serum glucagon. Put plainly: Glucagon Inhibition In Dogs (L-alanine infusion, serum glucagon by radioimmunoassay). It is filed as in vivo, dog. As for the experimental part: as §1, §2, §3, §4
Setting [2] is: dog, I.V. infusion alone (no L-alanine).
Where [3] appears, read: dog, I.V. infusion in the presence of L-alanine.
[4] abbreviates: normal fasted dog, I.V. infusion at doses of 0.195 and 0.230 μg/Kg/min, L-alanine infusion.

With `C[C@H](N)C(=O)NCC(=O)N[C@H]1CSSC[C@@H](C(=O)O)NC(=O)[C@H](CO)NC(=O)[C@H]([C@@H](C)O)NC(=O)[C@H](Cc2ccccc2)NC(=O)[C@H]([C@@H](C)O)NC(=O)[C@H](CCCCN)NC(=O)[C@H](Cc2c[nH]c3ccccc23)NC(=O)[C@H](Cc2ccccc2)NC(=O)[C@H](Cc2ccccc2)NC(=O)[C@H](CC(N)=O)NC(=O)[C@H](CCCCN)NC1=O` [Somatostatin], the “% Inhibition of GH release (as compared to saline controls)” value was 22% in experiment [1] (dose 2 (mg/kg) S.C.) and 64% in experiment [1] (dose 50 (mg/kg) S.C.). The “effect on basal serum concentration of insulin” value in the experiment on serum insulin (setting [2]) is “causes a decrease”. Besides, the “effect on increase in insulin concentration induced by L-alanine” value in the experiment with serum insulin (setting [3]) is on record as “inhibits the increase”. Also, the “effect on basal serum concentration of glucagon” value in the experiment with serum glucagon (setting [2]) is “causes a decrease”. The “effect on increase in glucagon concentration induced by L-alanine” value in the experiment on serum glucagon (setting [3]) was “inhibits the increase”.
Turning to “L-Alanyl-D-alanyl-L-cysteinyl-L-lysyl-D-alanyl-L-cyclohexylalanyl-L-phenylalanyl-D-tryptophyl-L-lysyl-D-valyl-L-phenylalanyl-L-threonyl-L-seryl-L-cysteine cyclic (3->14) disulfide [Example 4]”, the “% Inhibition of GH release (as compared to saline controls)” value is reported as 36% in experiment [1] (dose 2 (mg/kg) S.C.) and 73% in experiment [1] (dose 50 (mg/kg) S.C.). Moreover, the results for the “Serum Growth Hormone Conc. Mean ± SEM” value in experiment [1] (dose 2 (mg/kg) S.C.) and in experiment [1] (dose 50 (mg/kg) S.C.) were 71.6 ± 29.5 and 29.8 ± 18.6, respectively. Moreover, in the experiment on serum insulin (setting [4]), the “inhibition of insulin concentration” value is “no significant inhibition”. For the same molecule, in the experiment with serum glucagon (setting [4]), the “inhibition of glucagon concentration” value is reported as “no significant inhibition”.
